Measurements as given in patent US20230346670A1, “Prebiotic Oral Care Compositions and Methods” (Colgate-Palmolive Company, priority 2020, published 2023).
Where “and” joins values, the source holds several entries; their conditions need not be identical. Identical values can stand only once. Marks after values point to notes of the source that are not given here.

What was measured:
Format in all cases: cell-based
V. parvula = assay: Multi-species biofilm composition, absolute abundance (Geq/mL); conditions: repeated rinsing
Description: (§1) Biofilms are grown vertically on Calcium Deficient Hydroxyapatite (CAD-HA) disks (Hitemco Medical, Old Bethpage, USA) using the Amsterdam Active Adhesion model. Biofilms are allowed to establish during 24 h (37° C., 170 rpm) under microaerophilic conditions (6% O2, 7% CO2, 7% H2, 80% N2). After this 24 h, disks are rinsed 3 times a day for 3 minutes (RT, 250 rpm), for 3 consecutive days, by transferring the lid containing the disks to a new 24-well plate containing 2 mL/well of the appropriate substrate solution. As a negative control, PBS (pH 5.7) without substrate supplementation is used.
(§2) N-acetyl-D-glucosamine (NADG), α-D-lactose, D-(+)-trehalose and D-(+)-raffinose are selected to determine their effects on multi-species biofilm composition. […] decrease in absolute numbers in at least four of the pathogenic bacterial species tested in the assay, in comparison to the control, the results of which are described in Table 1 below. Note, NADG decreased absolute numbers of S. sobrinus. Absolute abundances of bacterial species are shown as mean ± SD (n = 3) logarithmic values of the genome equivalents per millilitre (log(Geq/mL)).

S. sanguinis = assay: as above; conditions: repeated rinsing
Description: as §1, §2

S. salivarius = assay: as above; conditions: repeated rinsing
Description: as §1, §2

F. nucleatum = assay: as above; conditions: repeated rinsing
Description: as §1, §2

S. mutans = assay: as above; conditions: repeated rinsing
Description: as §1, §2

A. viscosus = assay: as above; conditions: repeated rinsing
Description: as §1, §2

[1] = system: F. nucleatum virulence genes; assay: Virulence gene expression in multi-species biofilm (SYBR RT-qPCR); conditions: for fold change in ABC transp. perm. (ABC transporter permease) expression, geometric mean (95% C.I.) / fold change in EF-G expression, geometric mean (95% C.I.) / fold change in but. -coA transf. (butyrate-acetoacetate CoA-transferase) expression, geometric mean (95% C.I.) / fold change in hemin receptor expression, geometric mean (95% C.I.) / fold change in hemolysin expression, geometric mean (95% C.I.) / fold change in ompA expression, geometric mean (95% C.I.) / fold change in transposase expression, geometric mean (95% C.I.): relative to control = 1, 2^-ΔΔCt, n = 3
Description: as §1
(§3) The virulence of the substrate-treated multi-species biofilms are evaluated by analyzing the relative expression of 33 genes that are recognized as being related to some form of virulence and from 4 periodontal pathogens.
(§4) Expression of bacterial virulence genes is analyzed through SYBR RT-qPCR and normalized for bacterial housekeeping gene expression. […] These effects are illustrated in Tables 6a and 6b:
(§5) Note, for Table 6c, fold changes in virulence gene expression are determined relative to the control condition through the 2^^-ΔΔCt method and are shown as the geometric mean (C.I.) (n = 3) of the 2^^-ΔΔCt values. All substrates are dissolved in PBS at a concentration of 1 M (upper part) or 1%(w/v) (lower part). Values between 0 and 1 represent relative downregulation, values >1 represent relative upregulation. […] NADG: N-acetyl-D-glucosamine; C.I.: 95% confidence interval.

[2] = system: A. actinomycetemcomitans virulence genes; assay: as above
Description: as §1, §3, §4
as §5, with “Note, for Tables 6a and 6b, that fold changes” for “Note, for Table 6c, fold changes”, “of the 2^^-ΔΔ ^Ct values. All” for “of the 2^^-ΔΔCt values. All”

[3] = system: P. gingivalis virulence genes; assay: as above; conditions: for fold change in fimA expression, geometric mean (95% C.I.) / fold change in kgp expression, geometric mean (95% C.I.) / fold change in partC expression, geometric mean (95% C.I.) / fold change in rgpA expression, geometric mean (95% C.I.): relative to control, 2^-ΔΔCt, n = 3
Description: as §1, §3, §4
as §5, with “Note, for Tables 6a and 6b, that fold changes” for “Note, for Table 6c, fold changes”, “of the 2^^-ΔΔ ^Ct values. All” for “of the 2^^-ΔΔCt values. All”

multi-species biofilms = assay: Organic acid levels in supernatant of multi-species biofilms (ion chromatography); conditions: >0 production, <0 consumption, n = 3
Description: as §1
Levels of organic acids in the filter sterilized supernatant of the multi-species biofilms are measured using a 761 Compact Ion Chromatograph (Metrhohm, Switzerland) with a Metrosep Organic acids Guard/4.6 guard column. The supernatants from the substrate-treated multi-species biofilms are analyzed to gain more insight into the influence of the substrates on organic acid consumption/production.

[4] = lower part of Table 6a, substrate 1%(w/v), relative to control = 1
[5] = substrate 1 M, relative to control = 1, 2^-ΔΔCt, n = 3

CC(=O)N[C@H]1C(O)O[C@H](CO)[C@@H](O)[C@@H]1O (stereo partly drawn) [NADG, N-acetyl-D-glucosamine]
absolute abundance of V. parvula (VP), mean ± SD log (Geq/mL) (V. parvula; substrate 1% (w/v)): 9.77 ± 0.19 log (Geq/mL) | absolute abundance of V. parvula (VP), mean ± SD log (Geq/mL) (V. parvula; substrate 1 M in PBS, n = 3): 9.91 ± 0.19 log (Geq/mL) | absolute abundance of S. sanguinis, mean ± SD log (Geq/mL) (S. sanguinis; substrate 1% (w/v)): 8.40 ± 0.11 log (Geq/mL) | absolute abundance of S. sanguinis, mean ± SD log (Geq/mL) (S. sanguinis; substrate 1 M in PBS, n = 3): 6.43 ± 0.94 log (Geq/mL) | absolute abundance of S. salivarius, mean ± SD log (Geq/mL) (S. salivarius; substrate 1% (w/v)): 2.65 ± 0.00 log (Geq/mL) | absolute abundance of S. salivarius, mean ± SD log (Geq/mL) (S. salivarius; substrate 1 M in PBS, n = 3): 6.40 ± 0.29^∗ log (Geq/mL) | absolute abundance of F. nucleatum (Fn), mean ± SD log (Geq/mL) (F. nucleatum; substrate 1% (w/v)): 9.41 ± 0.19 log (Geq/mL) | absolute abundance of F. nucleatum (Fn), mean ± SD log (Geq/mL) (F. nucleatum; substrate 1 M in PBS, n = 3): 7.22 ± 0.28^∗ log (Geq/mL) | absolute abundance of S. mutans, mean ± SD log (Geq/mL) (S. mutans; substrate 1% (w/v)): 7.83 ± 0.23 log (Geq/mL) | absolute abundance of S. mutans, mean ± SD log (Geq/mL) (S. mutans; substrate 1 M in PBS, n = 3): 7.96 ± 0.10 log (Geq/mL) | absolute abundance of A. viscosus (Av), mean ± SD log (Geq/mL) (A. viscosus; substrate 1% (w/v)): 7.83 ± 0.31 log (Geq/mL) | absolute abundance of A. viscosus (Av), mean ± SD log (Geq/mL) (A. viscosus; substrate 1 M in PBS, n = 3): 6.72 ± 0.22 log (Geq/mL) | fold change in ABC transp. perm. (ABC transporter permease) expression, geometric mean (95% C.I.) ([1]; substrate 1% (w/v)): 0.33 (0.12-0.87)^∗ fold | fold change in EF-G expression, geometric mean (95% C.I.) ([1]; substrate 1% (w/v)): 0.10 (0.02-0.45)^∗ fold | fold change in but. -coA transf. (butyrate-acetoacetate CoA-transferase) expression, geometric mean (95% C.I.) ([1]; substrate 1% (w/v)): 0.21 (0.11-0.39)^∗ fold | fold change in hemin receptor expression, geometric mean (95% C.I.) ([1]; substrate 1% (w/v)): 0.19 (0.02-1.67)^∗ fold | fold change in hemolysin expression, geometric mean (95% C.I.) ([1]; substrate 1% (w/v)): 0.79 (0.30-2.04) fold | fold change in ompA expression, geometric mean (95% C.I.) ([1]; substrate 1% (w/v)): 0.74 (0.18-2.98) fold | fold change in transposase expression, geometric mean (95% C.I.) ([1]; substrate 1% (w/v)): 0.98 (0.18-5.39) fold | upregulation of F. nucleatum virulence gene expression, range over genes ([1]; substrate 1 M): more limited and only significant for 2 genes | fold change in ABC transp. perm. (ABC transporter permease) expression, geometric mean (95% C.I.) ([1]; substrate 1 M): 3.33 (2.53-4.39)^∗ fold | fold change in EF-G expression, geometric mean (95% C.I.) ([1]; substrate 1 M): 1.45 (0.93-2.26) fold | fold change in but. -coA transf. (butyrate-acetoacetate CoA-transferase) expression, geometric mean (95% C.I.) ([1]; substrate 1 M): 1.21 (0.99-1.49) fold | fold change in hemin receptor expression, geometric mean (95% C.I.) ([1]; substrate 1 M): 3.26 (2.24-4.76)^∗ fold | fold change in hemolysin expression, geometric mean (95% C.I.) ([1]; substrate 1 M): 1.90 (1.29-2.79) fold | fold change in ompA expression, geometric mean (95% C.I.) ([1]; substrate 1 M): 1.33 (0.78-2.25) fold | fold change in transposase expression, geometric mean (95% C.I.) ([1]; substrate 1 M): 1.27 (0.68-2.37) fold | fold change in aae expression, geometric mean (95% C.I.) [2, 4]: 1.55 (1.18-2.03) fold | fold change in apaH expression, geometric mean (95% C.I.) [2, 4]: 0.73 (0.41-1.29) fold | fold change in cdtB expression, geometric mean (95% C.I.) [2, 4]: 1.05 (0.61-1.81) fold | fold change in emaA expression, geometric mean (95% C.I.) [2, 4]: 0.68 (0.15-3.07) fold | fold change in flp expression, geometric mean (95% C.I.) [2, 4]: 0.54 (0.19-1.56) fold | fold change in ltxA expression, geometric mean (95% C.I.) [2, 4]: 0.4 (0.11-1.39) fold | fold change in omp29 expression, geometric mean (95% C.I.) [2, 4]: 0.77 (0.69-0.87) fold | fold change in omp100 expression, geometric mean (95% C.I.) [2, 4]: 0.71 (0.42-1.18) fold | fold change in orf859 expression, geometric mean (95% C.I.) [2, 4]: 1.99 (0.94-4.22)* fold | fold change in pgA expression, geometric mean (95% C.I.) [2, 4]: 1.07 (0.29-3.97) fold | fold change in vapA expression, geometric mean (95% C.I.) [2, 4]: 0.65 (0.48-0.86) fold | fold change in vppA expression, geometric mean (95% C.I.) [2, 4]: 0.28 (0.09-0.86)* fold | fold change in aae expression, geometric mean (95% C.I.) [2, 5]: 0.24 (0.18-0.33)^∗ fold | fold change in apaH expression, geometric mean (95% C.I.) [2, 5]: 0.08 (0.02-0.29)^∗ fold | fold change in cdtB expression, geometric mean (95% C.I.) [2, 5]: 0.04 (0.01-0.20)* fold | fold change in emaA expression, geometric mean (95% C.I.) [2, 5]: 0.29 (0.07-1.20)* fold | fold change in flp expression, geometric mean (95% C.I.) [2, 5]: 2.40 (0.67-8.67) fold | fold change in ltxA expression, geometric mean (95% C.I.) [2, 5]: 0.01 (0.00-0.20)* fold | fold change in omp29 expression, geometric mean (95% C.I.) [2, 5]: 0.19 (0.09-0.38)* fold | fold change in omp100 expression, geometric mean (95% C.I.) [2, 5]: 0.03 (0.01-0.05)* fold | fold change in orf859 expression, geometric mean (95% C.I.) [2, 5]: 0.13 (0.05-0.36)* fold | fold change in pgA expression, geometric mean (95% C.I.) [2, 5]: 11.6 (3.23-41.74)* fold | fold change in vapA expression, geometric mean (95% C.I.) [2, 5]: 1.00 (0.58-1.75) fold | fold change in vppA expression, geometric mean (95% C.I.) [2, 5]: 0.49 (0.41-0.59) fold | downregulation of P. gingivalis partC expression ([3]; substrate 1% (w/v)): approximately 2.8 fold | fold change in fimA expression, geometric mean (95% C.I.) ([3]; substrate 1 % (w/v)): 1.15 (0.32-4.06) fold | fold change in kgp expression, geometric mean (95% C.I.) ([3]; substrate 1 % (w/v)): 1.81 (0.44-7.50) fold | fold change in partC expression, geometric mean (95% C.I.) ([3]; substrate 1 % (w/v)): 0.36 (0.08-1.68)^∗ fold | fold change in rgpA expression, geometric mean (95% C.I.) ([3]; substrate 1 % (w/v)): 1.31 (1.03-1.66) fold | fold change in fimA expression, geometric mean (95% C.I.) ([3]; substrate 1 M): 0.79 (0.44-1.39) fold | fold change in kgp expression, geometric mean (95% C.I.) ([3]; substrate 1 M): 0.07 (0.04-0.13)^∗ fold | fold change in partC expression, geometric mean (95% C.I.) ([3]; substrate 1 M): 0.19 (0.13-0.28)^∗ fold | fold change in rgpA expression, geometric mean (95% C.I.) ([3]; substrate 1 M): 0.39 (0.18-0.84) fold | acetate level in biofilm supernatant, mean ± SD (multi-species biofilms; substrate 1% (w/v)): 379 ± 10 mg/L | butyrate level in biofilm supernatant, mean ± SD (multi-species biofilms; substrate 1% (w/v)): 2238 ± 59 mg/L | formate level in biofilm supernatant, mean ± SD (multi-species biofilms; substrate 1% (w/v)): 4315 ± 198 mg/L | lactate level in biofilm supernatant, mean ± SD (multi-species biofilms; substrate 1% (w/v)): -125 ± 0 mg/L | propionate level in biofilm supernatant, mean ± SD (multi-species biofilms; substrate 1% (w/v)): 2205 ± 89 mg/L | acetate level in biofilm supernatant, mean ± SD (multi-species biofilms; substrate 1 M): 3815 ± 77 mg/L | butyrate level in biofilm supernatant, mean ± SD (multi-species biofilms; substrate 1 M): 1255±51 mg/L and 1255 ± 51^∗ mg/L | formate level in biofilm supernatant, mean ± SD (multi-species biofilms; substrate 1 M): 352 ± 18 mg/L | lactate level in biofilm supernatant, mean ± SD (multi-species biofilms; substrate 1 M): -125 ± 0 mg/L | propionate level in biofilm supernatant, mean ± SD (multi-species biofilms; substrate 1 M): 2750±40 mg/L and 2750 ± 40^∗ mg/L
